Holding throughout (assay type): cell-based, human
Data set [1] concerns CD38 expressed on MM cells. Description: Daratumumab binding to myeloma cells pre-treated with EDO-S101, flow cytometry. The settings on record: JJN3, RPMI-8226, MOLP-8; EDO-S101 1 or 2.5 μM 48 h, then daratumumab 10 μg/ml. How it is done:
Evaluation of daratumumab binding to myeloma cells To evaluate daratumumab binding to myeloma cells, MM cell lines were first pre-treated with tinostamustine (1 or 2.5 μM) or DMSO for 48 hours. Then cells were washed to remove tinostamustine or DMSO from the culture medium, and daratumumab (10 μg/ml) was added and incubated for 30 minutes. After that time, cells were washed with PBS twice and incubated during 30 additional minutes with anti-human-IgG1-AlexaFluor488 (Invitrogen, Carlsbad, CA, USA). Cells were acquired in a FACSCalibur cytometer and normalized MFI was calculated as described above.
Flow cytometry was used to analyse the binding of daratumumab to MM cells pre-treated with EDO-S101. The anti-human-IgG1-Alexa Fluor 488 (Invitrogen, Carlsbad, CA, USA) antibody recognizes and binds daratumumab's Fc region and, therefore, it can be detected using flow cytometry.
MM cells (JJN3, MM1.S, RPMI-8226, MOLP-8) were treated with EDO-S101 (1 μM or 2.5 μM) in accordance with the general methods outlined above. Following treatment, the cells were washed with PBS, and incubated at 37° C. for 30 minutes with 10 μg/ml daratumumab. Cells were then washed with PBS, anti-human-IgG1-Alexa Fluor 488 was added, and the cells were incubated at 37° C. for a further 30 minutes. […]
On the technique in general: Flow cytometry measures light scatter and fluorescence of single cells or particles in a stream.

In a further data set the test system is CD38. Nature of the data set: CD38 surface expression in MM cell lines by flow cytometry. As for the experimental part: Cell Treatment with EDO-S101 MM cells (MM1S, JJN3, KMS12-BM, RPMI-8226, U266, MOLP-8) were either treated with a control (0 μM EDO-S101, DMSO vehicle) or treated with EDO-S101 (0.1, 0.5, 1 or 2.5 μM in DMSO) for 48 hours, unless indicated otherwise.
For surface staining, cells were incubated with the appropriate antibodies and 7AAD (Immunostep) for 15 min in the dark. Data were acquired using a FACSCalibur cytometer (BD Biosciences) and analyzed using Infinicyt™ software (Cytognos). Specifically, the expression of CD38 or ligands for NK cell activating receptors (MICA, MICB, ULBP1-3, PVR and CD112) in MM cell lines was determined on the viable cell population (7AAD-). In primary myeloma cells, the expression of CD38 was analyzed over the viable myeloma population using the panel CD138-FITC/CD56-PE/7AAD/CD38-APC, whereas MICA/B-AF488/CD56-PE/7AAD/CD38-APC panel was used to determine MICA/B expression. Normalized median fluorescence intensity (MFI) was calculated by dividing median fluorescence obtained with the specific antibody by median fluorescence of the corresponding isotype control. MFI for each treatment was expressed as a percentage relative to the control (100%, cells cultured in media with DMSO). […]

Another data set deals with MOLP-8 cells. Nature of the data set: Daratumumab cross-linking mediated apoptosis after EDO-S101 pre-treatment. Conditions: MOLP-8 pre-treated with EDO-S101 2.5 μM 48 h, daratumumab 1 μg/mL 24 h + F(ab)2; vs not pre-treated, p=0.0454. How it is done: (§1) ADCC, CDC and apoptosis via cross-linking To assess the effect of tinostamustine pre-treatment on cytotoxic mechanisms mediated by daratumumab, MM cell lines were first incubated in presence of tinostamustine (2.5 μM) or DMSO for 48 hours. Cells were then washed to remove tinostamustine or DMSO from the culture medium, and the corresponding cytotoxic assay (ADCC, CDC or apoptosis via cross-linking) was performed.
For the evaluation of ADCC, tinostamustine or DMSO pre-treated cells were cocultured with NK cells obtained from healthy donors in the presence of daratumumab (1 μg/ml) or the corresponding isotype control for 4 hours (ratio 1:1). […] In all three assays, the cytotoxic effect on MM cells was evaluated by flow cytometry with Annexin V/7AAD staining after treatment with daratumumab. […]
MM cells (MOLP-8 cells pre-treated with 0, 0.1, 0.5, 1 or 2.5 μM EDO-S101 for 48 hours in accordance with the methods outlined above) were incubated for 24 hours in the presence of 1 μg/mL daratumumab or the corresponding isotype control, along with 10 μg/mL F(ab)2 fragments for cross-linking. Apoptosis was evaluated by flow cytometry in accordance with the methods outlined above, using AnnexinV/7AAD staining. The effect of EDO-S101 on the crosslinking-mediated apoptosis induced by daratumumab was assessed using the following formula: […]

Data set [2] deals with MM cell lines (MM.1S, RPMI-8226, MOLP-8). Nature of the data set: NK-cell direct cytotoxicity on pre-treated MM cells. Conditions: pre-treatment 2.5 μM 48 hours, NK cells ratio 1:1, 4 hours, vs DMSO-pretreated. How it is done:
as §1
For the evaluation of ADCC, tinostamustine or DMSO pre-treated cells were cocultured with NK cells obtained from healthy donors in the presence of daratumumab (1 μg/ml) or the corresponding isotype control for 4 hours (ratio 1:1). Briefly, peripheral blood mononuclear cells (PBMCs) were isolated from healthy donor buffy coats by Lymphoprep density gradient centrifugation. […] In all three assays, the cytotoxic effect on MM cells was evaluated by flow cytometry with Annexin V/7AAD staining after treatment with daratumumab. […]
MM cells (MM1.S, RPMI-8226, MOLP-8 cells pre-treated with 0 or 2.5 μM EDO-S101 in accordance with the methods outlined above) were co-cultured with NK-cells (ratio 1:1), in the presence of daratumumab (1 μg/mL) or the corresponding isotype control, for 4 hours at 37° C. […] ADCC was then evaluated using flow cytometry in accordance with the methods outlined above, using the following panel: CD38me-FITC/AnnexinV-PE/7AAD/CD45-APC.

As to `Cn1c(CCCCCCC(=O)NO)nc2cc(N(CCCl)CCCl)ccc21` [EDO-S101, 7-(5-(bis(2-chloroethyl)amino)-1-methyl-1H-benzo[d]imidazol-2-yl)-N-hydroxyheptanamide], the “binding of daratumumab to MM cells (normalized MFI)” value in data set [1] was “increases”. Also, the “percentage of CD38+ cell population” value in the data set on CD38 (JJN3 cell line, 1 and 2.5 μM) was “significantly increased”. The “CD38 surface expression (normalized MFI)” value with CD38 (MM1.S, JJN3, KMS12-BM, RPMI-8226, U226, MOLP-8, 0.1, 0.5, 1 and 2.5 μM, 48 hours, relative to DMSO control, only exception NCI-H929) is “significantly increased”. Also, the “daratumumab-mediated apoptosis via cross-linking” value with MOLP-8 cells is reported as “higher”. The “percentage of dead myeloma cells, NK-cell direct cytotoxicity (no daratumumab)” value is on record as “significantly enhances” in data set [2] and “significantly increased” in data set [2] (listed as tinostamustine).

Source of the values: patent US20240252472A1, “COMBINATIONS FOR TREATING CANCER” (Purdue Pharma L.P., priority 2023, published 2024).
